Assay results as given in PubChem BioAssay AID248 (DTP/NCI, 2004).
“And” between values parts separate entries of the source, which are not always exact repeats. Equal entries are not always repeated. Inconclusive results and toxic doses are left out. Rule as the data show it: active = T/C of 150% or more; inactive = T/C below 125%.

Test system: L1210 leukemia ip in BDF1 mice, survival T/C
Assay: NCI In Vivo Anticancer Drug Screen. Data for tumor model L1210 Leukemia (intraperitoneal) in B6D2F1 (BDF1) mice
Conditions: endpoint: mean survival time, higher = longer survival
In short: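 Mice bearing the transplanted tumor received compound or vehicle. Survival of the treated group was divided by that of the vehicle-treated control group to give the ratio.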

[1] = dose: 100.0 mg/kg/injection, schedule: Q01DX009 (ip), vehicle: Klucel (hydroxypropylcellulose) (HPC)
[2] = dose: 100.0 mg/kg/injection, schedule: Q04DX003 (ip), vehicle: Klucel (hydroxypropylcellulose) (HPC)
[3] = dose: 200.0 mg/kg/injection, schedule: Q01DX009 (ip), vehicle: Klucel (hydroxypropylcellulose) (HPC)
[4] = dose: 200.0 mg/kg/injection, schedule: Q04DX003 (ip), vehicle: Klucel (hydroxypropylcellulose) (HPC)
[5] = dose: 400.0 mg/kg/injection, schedule: Q01DX009 (ip), vehicle: Klucel (hydroxypropylcellulose) (HPC)
[6] = dose: 100.0 mg/kg/injection, schedule: Q04DX003 (ip), vehicle: saline
[7] = dose: 200.0 mg/kg/injection, schedule: Q04DX003 (ip), vehicle: saline
[8] = dose: 100.0 mg/kg/injection, schedule: Q04DX003 (ip), vehicle: saline with Tween-80
[9] = dose: 200.0 mg/kg/injection, schedule: Q04DX003 (ip), vehicle: saline with Tween-80
[10] = dose: 400.0 mg/kg/injection, schedule: Q04DX003 (ip), vehicle: saline with Tween-80
[11] = dose: 100.0 mg/kg/injection, schedule: Q01DX001 (ip), vehicle: saline
[12] = dose: 200.0 mg/kg/injection, schedule: Q01DX001 (ip), vehicle: saline
[13] = dose: 400.0 mg/kg/injection, schedule: Q01DX001 (ip), vehicle: saline

Measured: T/C

CCCCCCCCCCCCCCCC(=O)OCc1cc(=O)c(O)co1
inactive: [1] 95 % of control | [2] 91 % of control | [3] 101 % of control | [4] 94 % of control | [5] 97 % of control | dose: 400.0 mg/kg/injection, schedule: Q04DX003 (ip), vehicle: Klucel (hydroxypropylcellulose) (HPC) 94 % of control

O=C(O)c1c[nH]c(=O)c([N+](=O)[O-])c1
inactive: dose: 50.0 mg/kg/injection, schedule: Q04DX003 (ip), vehicle: Klucel (hydroxypropylcellulose) (HPC) 97 % of control | [2] 91 % of control | [4] 92 % of control

O=[N+]([O-])c1cccc(S(=O)(=O)O)c1.[Fe]
inactive: [6] 95 % of control | [7] 89 % of control

CCC[As](=O)(O)CCCc1ccccc1
inactive: dose: 0.78 mg/kg/injection, schedule: Q01DX009 (ip), vehicle: Klucel (hydroxypropylcellulose) (HPC) 100 % of control | dose: 1.56 mg/kg/injection, schedule: Q01DX009 (ip), vehicle: Klucel (hydroxypropylcellulose) (HPC) 87 % of control | dose: 3.13 mg/kg/injection, schedule: Q01DX009 (ip), vehicle: Klucel (hydroxypropylcellulose) (HPC) 101 % of control

CCC(=O)c1ccc(OCC(CN2CCN(c3ccccc3OC)CC2)OC(C)=O)cc1 (stereo not drawn)
inactive: [8] 97 % of control | [9] 105 % of control | [10] 100 % of control

CN(Cc1c(S)ccc2ccccc12)Cc1c(S)ccc2ccccc12
inactive: [11] 94 % of control | [12] 98 % of control | [13] 96 % of control

CNc1ccc(C(=O)NC(CCC(=O)O)C(=O)O)cc1C(F)(F)F (stereo not drawn)
inactive: [1] 98 % of control | [3] 96 % of control | [5] 98 % of control

CCNNC
inactive: dose: 12.5 mg/kg/injection, schedule: Q04DX003 (ip), vehicle: saline 104 % of control | dose: 25.0 mg/kg/injection, schedule: Q04DX003 (ip), vehicle: saline 103 % of control | dose: 50.0 mg/kg/injection, schedule: Q04DX003 (ip), vehicle: saline 101 % of control | [6] 111 % of control | [7] 108 % of control

CC(C)C(NC(=O)OC(C)(C)C)C(=O)O (stereo not drawn)
inactive: dose: 12.5 mg/kg/injection, schedule: Q01DX009 (ip), vehicle: alcohol 106 % of control | dose: 25.0 mg/kg/injection, schedule: Q01DX009 (ip), vehicle: alcohol 109 % of control | dose: 25.0 mg/kg/injection, schedule: Q04DX003 (ip), vehicle: other 107 % of control | dose: 50.0 mg/kg/injection, schedule: Q01DX009 (ip), vehicle: alcohol 96 % of control | dose: 50.0 mg/kg/injection, schedule: Q04DX003 (ip), vehicle: other 93 % of control and 108 % of control | [11] 103 % of control | dose: 100.0 mg/kg/injection, schedule: Q01DX009 (ip), vehicle: alcohol 104 % of control | dose: 100.0 mg/kg/injection, schedule: Q04DX003 (ip), vehicle: other 94 % of control and 96 % of control | dose: 200.0 mg/kg/injection, schedule: Q01DX009 (ip), vehicle: alcohol 107 % of control | dose: 200.0 mg/kg/injection, schedule: Q04DX003 (ip), vehicle: other 101 % of control and 103 % of control

COc1cc(/C=C2\CCNC2=O)ccc1OCc1ccccc1
inactive: dose: 50.0 mg/kg/injection, schedule: Q01DX001 (ip), vehicle: carboxymethylcellulose (CMC) 94 % of control | dose: 100.0 mg/kg/injection, schedule: Q01DX001 (ip), vehicle: carboxymethylcellulose (CMC) 105 % of control | dose: 200.0 mg/kg/injection, schedule: Q01DX001 (ip), vehicle: carboxymethylcellulose (CMC) 97 % of control | dose: 400.0 mg/kg/injection, schedule: Q01DX001 (ip), vehicle: carboxymethylcellulose (CMC) 103 % of control

CC(=O)OC1C=CCC2C(=O)C3=C(C(=O)c4ccccc4C3=O)C(=O)C12 (stereo not drawn)
inactive: dose: 0.25 mg/kg/injection, schedule: Q04DX003 (ip), vehicle: saline with Tween-80 93 % of control | dose: 0.5 mg/kg/injection, schedule: Q04DX003 (ip), vehicle: saline with Tween-80 93 % of control | dose: 1.0 mg/kg/injection, schedule: Q04DX003 (ip), vehicle: saline with Tween-80 89 % of control | dose: 2.0 mg/kg/injection, schedule: Q04DX003 (ip), vehicle: saline with Tween-80 97 % of control | dose: 4.0 mg/kg/injection, schedule: Q04DX003 (ip), vehicle: saline with Tween-80 107 % of control | dose: 6.0 mg/kg/injection, schedule: Q04DX003 (ip), vehicle: saline with Tween-80 103 % of control | dose: 8.0 mg/kg/injection, schedule: Q04DX003 (ip), vehicle: saline with Tween-80 98 % of control | dose: 12.0 mg/kg/injection, schedule: Q04DX003 (ip), vehicle: saline with Tween-80 97 % of control | dose: 16.0 mg/kg/injection, schedule: Q04DX003 (ip), vehicle: saline with Tween-80 98 % of control | dose: 24.0 mg/kg/injection, schedule: Q04DX003 (ip), vehicle: saline with Tween-80 97 % of control | dose: 32.0 mg/kg/injection, schedule: Q04DX003 (ip), vehicle: saline with Tween-80 104 % of control | dose: 48.0 mg/kg/injection, schedule: Q04DX003 (ip), vehicle: saline with Tween-80 97 % of control | dose: 64.0 mg/kg/injection, schedule: Q04DX003 (ip), vehicle: saline with Tween-80 100 % of control | dose: 128.0 mg/kg/injection, schedule: Q04DX003 (ip), vehicle: saline with Tween-80 100 % of control

OCCN1CCNCC1
inactive: [11] 105 % of control | [12] 105 % of control | [13] 100 % of control

COC(=O)CCCCCCCCC(C)c1ccccc1 (stereo not drawn)
inactive: [1] 98 % of control | [6] 103 % of control | [3] 92 % of control | [7] 89 % of control | [5] 97 % of control | dose: 400.0 mg/kg/injection, schedule: Q04DX003 (ip), vehicle: saline 92 % of control

C/C=C/C(C1=C(O)c2ccccc2C(=O)C1=O)C1=C(O)c2ccccc2C(=O)C1=O
inactive: dose: 75.0 mg/kg/injection, schedule: Q01DX001 (ip), vehicle: carboxymethylcellulose (CMC) 100 % of control | dose: 150.0 mg/kg/injection, schedule: Q01DX001 (ip), vehicle: carboxymethylcellulose (CMC) 118 % of control | dose: 300.0 mg/kg/injection, schedule: Q01DX001 (ip), vehicle: carboxymethylcellulose (CMC) 108 % of control

CC(=O)OCC1OC(OC2C(COC(C)=O)OC(Sc3ccccc3)C(OC(C)=O)C2OC(C)=O)C(OC(C)=O)C(OC(C)=O)C1OC(C)=O (stereo not drawn)
inactive: dose: 3.13 mg/kg/injection, schedule: Q01DX009 (ip), vehicle: saline with Tween-80 89 % of control | dose: 12.5 mg/kg/injection, schedule: Q01DX009 (ip), vehicle: saline with Tween-80 89 % of control | dose: 25.0 mg/kg/injection, schedule: Q01DX009 (ip), vehicle: saline with Tween-80 90 % of control | dose: 25.0 mg/kg/injection, schedule: Q04DX003 (ip), vehicle: saline with Tween-80 95 % of control | dose: 50.0 mg/kg/injection, schedule: Q01DX009 (ip), vehicle: saline with Tween-80 90 % of control | dose: 50.0 mg/kg/injection, schedule: Q04DX003 (ip), vehicle: saline with Tween-80 95 % of control | dose: 100.0 mg/kg/injection, schedule: Q01DX009 (ip), vehicle: saline with Tween-80 88 % of control | [8] 92 % of control | dose: 200.0 mg/kg/injection, schedule: Q01DX009 (ip), vehicle: saline with Tween-80 94 % of control | [9] 91 % of control | [10] 87 % of control

c1ccc([P+](c2ccccc2)(c2ccccc2)C2CC2)cc1
inactive: dose: 5.0 mg/kg/injection, schedule: Q01DX001 (ip), vehicle: saline 93 % of control | dose: 10.0 mg/kg/injection, schedule: Q01DX001 (ip), vehicle: saline 101 % of control | dose: 20.0 mg/kg/injection, schedule: Q01DX001 (ip), vehicle: saline 104 % of control | dose: 40.0 mg/kg/injection, schedule: Q01DX001 (ip), vehicle: saline 104 % of control

COc1cc(N=O)ccc1O
inactive: dose: 50.0 mg/kg/injection, schedule: Q01DX009 (ip), vehicle: Klucel (hydroxypropylcellulose) (HPC) 106 % of control | [1] 103 % of control | [3] 100 % of control

C[N+](C)(C)c1ncnc2c1ncn2C1CCCO1 (stereo not drawn)
inactive: dose: 50.0 mg/kg/injection, schedule: Q01DX Z (ip), vehicle: methylcellulose (MC) 92 % of control | dose: 100.0 mg/kg/injection, schedule: Q01DX Z (ip), vehicle: methylcellulose (MC) 94 % of control
